Read-outs that look alike come from different tables or passages of the source. One block for each compound: values may come before it.
What was measured:
[1] = biological target: KRAS protein containing G12D mutation (Homo sapiens (Human), UniProt P01116, G12D); test: SOS-catalyzed nucleotide exchange assay (GNE), TR-FRET; type: biochemical; settings: biotinylated KRAS G12D, SOS and GTP, 60-minute incubation
Experimental: Compounds are added to this complex and then after a 60-minute incubation time the mixture is treated with SOS and unlabeled GTP. Small molecule inhibitors stabilize the Bodipy-GDP complex whereas the untreated protein rapidly exchanges Bodipy-GDP for unlabeled GTP resulting in reduced TR-FRET signal.
This solution is referred to as biotinylated KRAS G12D stock solution.

[2] = biological target: KRAS G12D / Ras binding domain of C-RAF (Homo sapiens (Human), UniProt P01116, G12D); test: RAS:RAF-RBD binding assay (cRaf), TR-FRET; settings: biotinylated KRAS G12D, GST-C-RAF RBD
Chain of KRAS G12D / Ras binding domain of C-RAF (P01116 other isoform, or with tags, fused parts or gaps G12D (already in the parent)): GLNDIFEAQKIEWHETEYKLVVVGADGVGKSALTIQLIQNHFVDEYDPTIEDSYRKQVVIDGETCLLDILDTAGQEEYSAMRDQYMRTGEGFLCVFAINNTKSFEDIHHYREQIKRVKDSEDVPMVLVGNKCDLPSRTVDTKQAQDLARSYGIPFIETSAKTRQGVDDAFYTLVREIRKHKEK

[3] = test system: AsPC-1 cells containing homozygous KRAS-G12D activating mutation; test: Cellular phospho-ERK assay (Examples 1a-106); type: cell-based; settings: AsPC-1 cells, 2 hours, ratio of p-Erk vs total Erk, read-out: IC50 (nM) pERK (Cell)
Text: 5% CO? overnight. […] Assay plates were read on a EnVision Multimode Plate Reader (PerkinElmer) and the ratio of p-Erk vs total Erk in each well was used as the final readout.

Chain of KRAS protein containing G12D mutation (P01116 other isoform, or with tags, fused parts or gaps G12D (already in the parent)): as above

Compound: Cc1cc2[nH]ncc2c(C2Cc3nc(OC[C@]4(CN(C)C)CC4(F)F)nc(N4C[C@H]5CC[C@@](C)(C4)N5)c3C(=O)O2)c1C(F)(F)F (single isomer, unassigned) [Ex. 96b]
IC50 [1]: 3.31 nM | IC50 ([2]; IC50 (nM) (cRaf)): 637 nM | IC50 [3]: 657 nM

Compound: CN(C)CC1(COc2nc(N3C[C@@H]4CC[C@](C)(C3)N4)c3cc(F)c(-c4cc(O)cc5ccccc45)c(F)c3n2)CC1 [Example 20, 4-(2-((1-((dimethylamino)methyl)cyclopropyl)methoxy)-6,8-difluoro-4-((1R,5S)-1-methyl-3,8-diazabicyclo[3.2.1]octan-3-yl)quinazolin-7-yl)naphthalen-2-ol]
IC50 [1]: 117 nM | IC50 ([2]; IC50 (nM) (cRaf)): 14400 nM | IC50 ([3]; Homo sapiens, ASPC1, 2 h): 3500 nM

Compound: CN(C)CC1(COc2nc(N3CC4CCC(CC#N)(C3)N4)c3cc(Cl)c(-c4cc(O)cc5ccccc45)c(F)c3n2)CC1 (stereo not drawn) [Example 36, 2-(3-(6-chloro-2-((1-((dimethylamino)meth-yl)cyclopro-pyl)methoxy)-8-fluoro-7-(3-hydroxy-naphthalen-1-yl)quinazolin-4-yl)-3,8-diazabicyclo[3.2.1]oc-tan-1-yl)acetonitrile]
IC50 [1]: 4680 nM | IC50 ([2]; IC50 (nM) (cRaf)): 50000 nM | IC50 ([3]; Homo sapiens, ASPC1, 2 h): 46400 nM

Compound: CN(C)CC1(COc2nc(N3C[C@H]4CC[C@@](C)(C3)N4)c3nnc(-c4cc(O)cc5ccccc45)cc3n2)CC1 [Ex. 101, 4-(6-((1-((dimethylamino)methyl)cyclopropyl)methoxy)-8-((1S,5R)-1-methyl-3,8-diazabicyclo[3.2.1]octan-3-yl)pyrimido[5,4-c]pyridazin-3-yl)naphthalen-2-ol]
IC50 [1]: 1020 nM | IC50 ([2]; IC50 (nM) (cRaf)): 20900 nM | IC50 ([3]; Homo sapiens, ASPC1, 2 h): 42200 nM

Compound: CN(C)CC1(COc2nc(N3C[C@@H]4C[C@H](O)C(C)(C3)N4)c3cc(Cl)c(-c4cc(O)cc5ccccc45)c(F)c3n2)CC1 (stereo in doubt) [Example 41, 3-(6-chloro-2-((1-((dimethylamino)methyl)cyclopropyl)methoxy)-8-fluoro-7-(3-hydroxynaphthalen-1-yl)quinazolin-4-yl)-5-methyl-3,8-diazabicyclo[3.2.1]octan-6-ol]
IC50 [1]: 20.3 nM | IC50 ([2]; IC50 (nM) (cRaf)): 1270 nM | IC50 ([3]; Homo sapiens, ASPC1, 2 h): 2840 nM

Compound: CN(C)CC1(COc2nc(N3CC4CCC(C3)N4)c3cc(Cl)c(-c4cc(O)ccc4[Si](C)(C)C)c(F)c3n2)CC1 [Example 45, 3-(4-(3,8-diazabicyclo[3.2.1]octan-3-yl)-6-chloro-2-((1-((dimethylamino)methyl)cyclopropyl)methoxy)-8-fluoroquinazolin-7-yl)-4-(trimethylsilyl)phenol]
IC50 [1]: 376 nM | IC50 ([2]; IC50 (nM) (cRaf)): 31600 nM | IC50 ([3]; Homo sapiens, ASPC1, 2 h): 5470 nM

Compound: CCC12CCC(CN(c3nc(OCC4(CN(C)C)CC4)nc4c(F)c(-c5cc(O)cc6ccccc56)c(F)cc34)C1)N2 (stereo not drawn) [Example 33, 4-(2-((1-((dimethylamino)meth-yl)cyclopro-pyl)methoxy)-4-(1-ethyl-3,8-diazabicy-clo[3.2.1]octan-3-yl)-6,8-difluoroquinazolin-7-yl)naphthalen-2-ol]
IC50 [1]: 88.5 nM | IC50 ([2]; IC50 (nM) (cRaf)): 5070 nM | IC50 ([3]; Homo sapiens, ASPC1, 2 h): 3450 nM

IC50 [1]: 437 nM | IC50 ([2]; read-out: IC50 (nM) (cRaf)): 35300 nM | IC50 [3]: 7130 nM
Compound: C[C@]12CC[C@H](CN(c3nc(OCC4(CN5CC[C@@H](F)C5)CC4)nc4c3CCN(c3cccc5cccc(Br)c35)C4)C1)N2 [Ex. 93, 7-(8-bromonaphthalen-1-yl)-2-((1-(((R)-3-fluoropyrrolidin-1-yl)methyl)cyclopropyl)methoxy)-4-((1S,5R)-1-methyl-3,8-diazabicyclo[3.2.1]octan-3-yl)-5,6,7,8-tetrahydropyrido[3.4-d]pyrimidine]

IC50 [1]: 24.1 nM | IC50 ([2]; read-out: IC50 (nM) (cRaf)): 4240 nM | IC50 [3]: 2080 nM
Compound: CN(C)C[C@]1(COc2nc(N3CC4CCC(C3)N4)c3cc(Cl)c(-c4cc(O)cc5ccccc45)c(F)c3n2)CC1(F)F (atropisomer, axis not shown) [Example 11a, 4-(4-(3.8-diazabicyclo[3.2.1]octan-3-yl)-6-chloro-2-(((S)-1-((dimethylamino)methyl)-2,2-difluorocyclopropyl)methoxy)-8-fluoroquinazolin-7-yl)naphthalen-2-ol]

Compound: C[C@]12CC[C@H](CN(c3nc(OC[C@@]45CCCN4C[C@H](F)C5)nc4c(F)c(-c5cc(O)cc6cccc(Cl)c56)c(F)cc34)C1)N2 [Ex. 89, 5-chloro-4-(6,8-difluoro-2-(((2R,7aS)-2-fluorotetrahydro-1H-pyrrolizin-7a(5H)-yl)methoxy)-4-((1S,5R)-1-methyl-3,8-diazabicyclo[3.2.1]octan-3-yl)quinazolin-7-yl)naphthalen-2-ol]
IC50 [1]: 0.565 nM | IC50 ([2]; IC50 (nM) (cRaf)): 31.8 nM | IC50 ([3]; Homo sapiens, ASPC1, 2 h): 46 nM

Compound: Cc1cc(N)nc(-c2c(F)cc3c(N4CC5CCC(C4)N5)nc(OCC4(CN5CCOCC5)CC4)nc3c2F)c1C(F)(F)F [Ex. 87, 6-(4-(3.8-diazabicyclo[3.2.1]octan-3-yl)-6,8-difluoro-2-((1-(morpholinomethyl)cyclopropyl)methoxy)quinazolin-7-yl)-4-methyl-5-(trifluoromethyl)pyridin-2-amine]
IC50 [1]: 37.4 nM | IC50 ([2]; read-out: IC50 (nM) (cRaf)): 11400 nM | IC50 [3]: 1340 nM

Compound: CN(C)CC1(COc2nc(N3CC4(C)CCC(C)(C3)N4)c3cc(F)c(-c4cc(O)cc5ccccc45)c(F)c3n2)CC1 [Example 32, 4-(4-(1,5-dimethyl-3,8-diazabicy-clo[3.2.1]octan-3-yl)-2-((1-((dimethyl-amino)methyl)cyclo-propyl)methoxy)-6,8-difluoroquinazolin-7-yl)naphthalen-2-ol]
IC50 [1]: 64.2 nM | IC50 ([2]; IC50 (nM) (cRaf)): 1430 nM | IC50 ([3]; Homo sapiens, ASPC1, 2 h): 2260 nM

Compound: CN(C)CC1(COc2nc(N3CC4CCC(F)(C3)N4)c3cc(Cl)c(-c4cc(O)cc5ccccc45)c(F)c3n2)CC1 (stereo not drawn) [Example 34, 4-(6-chloro-2-((1-((dimethylamino)meth-yl)cyclopropyl)meth-oxy)-8-fluoro-4-(1-fluoro-3,8-diaza-bicyclo[3.2.1]octan-3-yl)quinaozlin-7-yl)naphthalen-2-ol]
IC50 [1]: 2560 nM | IC50 ([2]; IC50 (nM) (cRaf)): 38300 nM | IC50 ([3]; Homo sapiens, ASPC1, 2 h): 11500 nM

Compound: Cc1c(Cl)cc2[nH]nc(C)c2c1-c1c(F)cc2c(N3C[C@H]4CC[C@@](C)(C3)N4)nc(OCC3(CN(C)C)CC3(F)F)nc2c1F (single isomer, unassigned) [Ex 68]
IC50 [1]: 39.9 nM | IC50 ([2]; IC50 (nM) (cRaf)): 3300 nM | IC50 ([3]; Homo sapiens, ASPC1, 2 h): 2380 nM

Compound: Cc1cc2[nH]ncc2c(-c2c(F)cc3c(N4C[C@H]5CC[C@@H](C4)N5)nc(OCC4(CN(C)C)CC4)nc3c2F)c1Cl [Example 65, 1-(1-(((4-((1R,5S)-3,8-diazabicyclo[3.2.1]octan-3-yl)-7-(5-chloro-6-methyl-1H-indazol-4-yl)-6,8-difluoroquinazolin-2-yl)oxy)methyl)cyclopropyl)-N,N-dimethylmethanamine]
IC50 [1]: 272 nM | IC50 ([2]; IC50 (nM) (cRaf)): 45700 nM | IC50 ([3]; Homo sapiens, ASPC1, 2 h): 2840 nM

Compound: Oc1cc(-c2c(F)cc3c(N4CC5CC(O)C(C4)N5)nc(OCC4(CN5CCOCC5)CC4)nc3c2F)c2ccccc2c1 (single isomer, unassigned) [Example 16]
IC50 [1]: 30.2 nM | IC50 ([2]; IC50 (nM) (cRaf)): 871 nM | IC50 ([3]; Homo sapiens, ASPC1, 2 h): 5760 nM

Compound: CC[C@H]1N[C@H]2CC[C@@H]1N(c1nc(OCC3(CN(C)C)CC3)nc3c(F)c(-c4cc(O)cc5ccccc45)c(Cl)cc13)C2 [Example 39, 4-(6-chloro-2-((1-((dimethylamino)methyl)cyclopropyl)methoxy)-4-((1S,4S,6R)-6-ethyl-2,5-diazabicyclo[2.2.2]octan-2-yl)-8-fluoroquinazolin-7-yl)naphthalen-2-ol]
IC50 [1]: 46.7 nM | IC50 ([2]; IC50 (nM) (cRaf)): 4670 nM | IC50 ([3]; Homo sapiens, ASPC1, 2 h): 3310 nM

Reference: patent publication US20240239788A1, “SMALL MOLECULE INHIBITORS OF KRAS G12D MUTANT” (Merck Sharp & Dohme LLC, priority 2021, published 2024)
